Experimental data reported in patent publication US9180118B2, “Thiadiazolidinone derivatives” (University of Rochester, priority 2006, dated 2015).

Assays:
Test in all cases: Kinase assay
Format in all cases: biochemical
ABL1 = ABL1 (Homo sapiens, UniProt P00519)
Experimental: (§1) Kinase Assays: Single point and titration assays are performed using protocols (or essentially using protocols) know in the art for kinase activity profiling against a battery of kinase targets, including, for example, those specifically delineated herein. Such assays include, for example, those available from commercial sources, contract research laboratories, and the like.

AKT1 (PKB alpha) = AKT1 (PKB alpha) (Homo sapiens, UniProt P31749)
Experimental: as §1

BTK = BTK (Homo sapiens, UniProt Q06187)
Experimental: as §1

CDK1/cyclin B = CDK1/cyclin B (Homo sapiens, UniProt P06493)
Experimental: as §1

CHEK1 (CHK1) = CHEK1 (CHK1) (Homo sapiens, UniProt O14757)
Experimental: as §1

CSNK1G2 (CK1 gamma 2) = CSNK1G2 (CK1 gamma 2) (Homo sapiens, UniProt P78368)
Experimental: as §1

CSNK2A1 (CK2 alpha 1) = CSNK2A1 (CK2 alpha 1) (Homo sapiens, UniProt P68400)
Experimental: as §1

DYRK3 = DYRK3 (Homo sapiens, UniProt O43781)
Experimental: as §1

EGFR (ErbB1) = EGFR (ErbB1) (Homo sapiens, UniProt P00533)
Experimental: as §1

ERBB2 (HER2) = ERBB2 (HER2) (Homo sapiens, UniProt P04626)
Experimental: as §1

FGFR1 = FGFR1 (Homo sapiens, UniProt P11362)
Experimental: as §1

IGF1R = IGF1R (Homo sapiens, UniProt P08069)
Experimental: as §1

INSR = INSR (Homo sapiens, UniProt P06213)
Experimental: as §1

IRAK4 = IRAK4 (Homo sapiens, UniProt Q9NWZ3)
Experimental: as §1

JAK3 = JAK3 (Homo sapiens, UniProt P52333)
Experimental: as §1

Jak2 = Jak2 (Homo sapiens, UniProt O60674); details: TDZD-8 20 μM
Experimental: as §1

KIT = KIT (Homo sapiens, UniProt P10721)
Experimental: as §1

LCK = LCK (Homo sapiens, UniProt P06239)
Experimental: as §1

MAP2K1 (MEK1) = MAP2K1 (MEK1) (Homo sapiens, UniProt Q02750)
Experimental: as §1

MAPK14 (p38 alpha) = MAPK14 (p38 alpha) (Homo sapiens, UniProt Q16539)
Experimental: as §1

MAPK3 (ERK1) = MAPK3 (ERK1) (Homo sapiens, UniProt P27361)
Experimental: as §1

MAPKAPK2 = MAPKAPK2 (Homo sapiens, UniProt P49137)
Experimental: as §1

MET (cMet) = MET (cMet) (Homo sapiens, UniProt P08581)
Experimental: as §1

NTRK1 (TRKA) = NTRK1 (TRKA) (Homo sapiens, UniProt P04629)
Experimental: as §1

PIM1 = PIM1 (Homo sapiens, UniProt P11309)
Experimental: as §1

PRKACA (PKA) = PRKACA (PKA) (Homo sapiens, UniProt P17612)
Experimental: as §1

PRKCA (PKC alpha) = PRKCA (PKC alpha) (Homo sapiens, UniProt P17252)
Experimental: as §1

PRKCE (PKC epsilon) = PRKCE (PKC epsilon) (Homo sapiens, UniProt Q02156)
Experimental: as §1

PRKCG (PKC gamma) = PRKCG (PKC gamma) (Homo sapiens, UniProt P05129)
Experimental: as §1

PRKCH (PKC eta) = PRKCH (PKC eta) (Homo sapiens, UniProt P24723)
Experimental: as §1

PRKCN (PKD3) = PRKCN (PKD3) (Homo sapiens, UniProt O94806)
Experimental: as §1

PRKCQ (PKC theta) = PRKCQ (PKC theta) (Homo sapiens, UniProt Q04759)
Experimental: as §1

PRKCZ (PKC zeta) = PRKCZ (PKC zeta) (Homo sapiens, UniProt Q05513)
Experimental: as §1

RET = RET (Homo sapiens, UniProt P07949)
Experimental: as §1

ROCK1 = ROCK1 (Homo sapiens, UniProt Q13464)
Experimental: as §1

RPS6KA3 (RSK2) = RPS6KA3 (RSK2) (Homo sapiens, UniProt P51812)
Experimental: as §1

SRC = SRC (Homo sapiens, UniProt P12931)
Experimental: as §1

STK6 (Aurora A) = STK6 (Aurora A) (Homo sapiens, UniProt O14965)
Experimental: as §1

SYK = SYK (Homo sapiens, UniProt P43405)
Experimental: as §1

TEK (Tie2) = TEK (Tie2) (Homo sapiens, UniProt Q02763)
Experimental: as §1

Chain of TEK (Tie2) (Q02763 23-1124, species assumed): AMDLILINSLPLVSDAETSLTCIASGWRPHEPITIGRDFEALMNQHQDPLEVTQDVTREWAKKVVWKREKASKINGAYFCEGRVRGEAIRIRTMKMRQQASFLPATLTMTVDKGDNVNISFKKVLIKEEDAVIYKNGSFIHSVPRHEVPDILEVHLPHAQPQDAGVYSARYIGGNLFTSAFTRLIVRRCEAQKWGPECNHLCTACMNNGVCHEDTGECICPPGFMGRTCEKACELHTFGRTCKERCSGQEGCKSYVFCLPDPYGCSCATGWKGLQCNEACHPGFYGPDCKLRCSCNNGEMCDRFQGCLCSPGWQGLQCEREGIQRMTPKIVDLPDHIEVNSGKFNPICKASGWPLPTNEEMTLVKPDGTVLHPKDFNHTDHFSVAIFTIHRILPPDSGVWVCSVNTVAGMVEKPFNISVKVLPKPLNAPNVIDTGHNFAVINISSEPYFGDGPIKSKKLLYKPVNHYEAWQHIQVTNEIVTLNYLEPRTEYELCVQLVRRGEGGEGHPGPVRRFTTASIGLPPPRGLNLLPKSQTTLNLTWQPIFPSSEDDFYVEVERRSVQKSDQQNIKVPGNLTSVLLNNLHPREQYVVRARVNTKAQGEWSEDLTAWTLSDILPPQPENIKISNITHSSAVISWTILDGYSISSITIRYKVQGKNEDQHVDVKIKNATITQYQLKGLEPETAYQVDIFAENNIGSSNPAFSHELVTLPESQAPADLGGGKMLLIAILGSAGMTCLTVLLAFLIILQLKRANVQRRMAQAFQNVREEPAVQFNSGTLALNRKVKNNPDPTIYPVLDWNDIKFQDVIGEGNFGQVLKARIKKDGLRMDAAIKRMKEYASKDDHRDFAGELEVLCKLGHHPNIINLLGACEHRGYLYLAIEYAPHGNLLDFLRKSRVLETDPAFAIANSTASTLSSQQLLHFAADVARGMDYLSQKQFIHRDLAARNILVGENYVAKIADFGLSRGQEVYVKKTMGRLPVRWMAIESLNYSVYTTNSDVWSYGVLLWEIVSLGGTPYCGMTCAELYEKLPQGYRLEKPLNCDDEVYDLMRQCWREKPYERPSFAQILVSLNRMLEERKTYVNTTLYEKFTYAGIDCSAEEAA
Chain of SRC (P12931 whole entry, species assumed): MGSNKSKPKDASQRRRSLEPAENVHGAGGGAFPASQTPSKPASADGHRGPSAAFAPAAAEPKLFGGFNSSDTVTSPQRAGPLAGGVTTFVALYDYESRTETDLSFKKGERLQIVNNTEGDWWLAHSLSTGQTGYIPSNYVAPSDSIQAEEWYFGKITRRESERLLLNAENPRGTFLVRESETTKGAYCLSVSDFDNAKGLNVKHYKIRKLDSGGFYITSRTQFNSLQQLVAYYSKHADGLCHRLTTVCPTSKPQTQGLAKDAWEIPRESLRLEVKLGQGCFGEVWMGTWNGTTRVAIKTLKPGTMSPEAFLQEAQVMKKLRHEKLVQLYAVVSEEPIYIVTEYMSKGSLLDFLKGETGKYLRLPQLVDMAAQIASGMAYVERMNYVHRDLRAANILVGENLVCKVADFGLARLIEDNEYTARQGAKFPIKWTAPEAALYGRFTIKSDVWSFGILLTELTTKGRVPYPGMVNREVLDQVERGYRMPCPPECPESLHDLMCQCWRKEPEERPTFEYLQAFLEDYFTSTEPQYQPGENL
Chain of KIT (P10721 26-976): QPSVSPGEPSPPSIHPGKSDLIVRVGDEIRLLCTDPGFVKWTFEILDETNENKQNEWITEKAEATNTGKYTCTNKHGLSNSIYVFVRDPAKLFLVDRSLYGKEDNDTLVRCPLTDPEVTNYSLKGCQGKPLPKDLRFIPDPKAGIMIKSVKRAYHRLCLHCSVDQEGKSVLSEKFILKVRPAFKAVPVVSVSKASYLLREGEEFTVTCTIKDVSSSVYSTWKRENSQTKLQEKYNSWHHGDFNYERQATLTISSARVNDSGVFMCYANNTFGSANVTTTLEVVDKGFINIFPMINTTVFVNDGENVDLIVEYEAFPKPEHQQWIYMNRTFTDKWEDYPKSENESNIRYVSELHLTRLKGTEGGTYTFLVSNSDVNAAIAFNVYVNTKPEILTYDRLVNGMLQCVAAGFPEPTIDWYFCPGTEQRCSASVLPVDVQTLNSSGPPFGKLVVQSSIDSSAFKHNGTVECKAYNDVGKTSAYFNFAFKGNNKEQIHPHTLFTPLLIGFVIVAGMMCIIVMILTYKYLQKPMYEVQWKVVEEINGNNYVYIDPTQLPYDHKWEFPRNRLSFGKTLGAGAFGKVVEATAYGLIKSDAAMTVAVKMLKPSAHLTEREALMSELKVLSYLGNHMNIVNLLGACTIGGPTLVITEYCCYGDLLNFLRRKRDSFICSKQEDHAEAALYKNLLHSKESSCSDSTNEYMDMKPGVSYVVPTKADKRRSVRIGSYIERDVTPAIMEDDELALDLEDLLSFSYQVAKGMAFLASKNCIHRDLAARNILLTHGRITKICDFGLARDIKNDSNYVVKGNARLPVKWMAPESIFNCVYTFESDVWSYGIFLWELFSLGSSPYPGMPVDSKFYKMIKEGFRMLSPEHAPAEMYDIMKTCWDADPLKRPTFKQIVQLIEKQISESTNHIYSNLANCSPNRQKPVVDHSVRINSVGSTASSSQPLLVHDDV
Chain of MAP2K1 (MEK1) (Q02750 whole entry): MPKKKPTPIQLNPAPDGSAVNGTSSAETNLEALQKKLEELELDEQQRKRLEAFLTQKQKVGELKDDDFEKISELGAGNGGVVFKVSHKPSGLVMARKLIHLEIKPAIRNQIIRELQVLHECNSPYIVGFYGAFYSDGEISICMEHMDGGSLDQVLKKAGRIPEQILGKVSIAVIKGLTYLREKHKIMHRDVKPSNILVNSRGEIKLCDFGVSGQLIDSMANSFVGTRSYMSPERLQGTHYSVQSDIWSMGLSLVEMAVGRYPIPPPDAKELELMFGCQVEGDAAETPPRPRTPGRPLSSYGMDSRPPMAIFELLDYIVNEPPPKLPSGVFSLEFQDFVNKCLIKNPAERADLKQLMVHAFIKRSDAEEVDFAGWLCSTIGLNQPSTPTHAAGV
Chain of EGFR (ErbB1) (P00533 25-1210): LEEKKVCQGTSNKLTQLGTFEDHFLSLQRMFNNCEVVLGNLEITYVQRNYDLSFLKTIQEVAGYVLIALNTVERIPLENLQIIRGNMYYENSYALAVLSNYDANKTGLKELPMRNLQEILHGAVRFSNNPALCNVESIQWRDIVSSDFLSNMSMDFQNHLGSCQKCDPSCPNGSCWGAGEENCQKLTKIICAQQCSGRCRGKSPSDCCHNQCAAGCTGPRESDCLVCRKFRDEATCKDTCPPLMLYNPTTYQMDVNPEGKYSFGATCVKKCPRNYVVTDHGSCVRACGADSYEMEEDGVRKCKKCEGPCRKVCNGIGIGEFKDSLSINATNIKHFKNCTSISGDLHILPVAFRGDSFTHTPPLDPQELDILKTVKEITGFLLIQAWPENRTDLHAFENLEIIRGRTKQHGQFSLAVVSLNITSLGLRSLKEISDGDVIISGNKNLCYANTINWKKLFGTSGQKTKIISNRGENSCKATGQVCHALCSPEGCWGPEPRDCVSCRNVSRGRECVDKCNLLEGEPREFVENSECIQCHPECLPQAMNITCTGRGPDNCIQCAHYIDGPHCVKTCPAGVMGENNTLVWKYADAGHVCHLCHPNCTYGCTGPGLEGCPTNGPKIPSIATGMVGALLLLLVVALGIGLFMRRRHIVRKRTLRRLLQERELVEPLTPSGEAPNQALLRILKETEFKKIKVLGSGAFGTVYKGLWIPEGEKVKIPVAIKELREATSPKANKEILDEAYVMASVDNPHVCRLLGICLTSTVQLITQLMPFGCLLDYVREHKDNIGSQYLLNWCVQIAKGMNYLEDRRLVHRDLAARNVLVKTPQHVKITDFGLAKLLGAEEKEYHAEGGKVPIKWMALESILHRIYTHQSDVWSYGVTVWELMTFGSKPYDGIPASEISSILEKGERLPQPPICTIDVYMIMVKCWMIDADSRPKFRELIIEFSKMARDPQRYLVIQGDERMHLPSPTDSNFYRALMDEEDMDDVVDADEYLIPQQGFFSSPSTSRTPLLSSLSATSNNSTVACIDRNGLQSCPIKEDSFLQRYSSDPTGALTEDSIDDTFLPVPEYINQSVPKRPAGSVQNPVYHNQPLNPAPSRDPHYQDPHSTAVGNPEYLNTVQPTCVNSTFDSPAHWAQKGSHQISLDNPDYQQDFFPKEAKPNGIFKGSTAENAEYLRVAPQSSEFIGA
Chain of PRKCZ (PKC zeta) (Q05513 whole entry): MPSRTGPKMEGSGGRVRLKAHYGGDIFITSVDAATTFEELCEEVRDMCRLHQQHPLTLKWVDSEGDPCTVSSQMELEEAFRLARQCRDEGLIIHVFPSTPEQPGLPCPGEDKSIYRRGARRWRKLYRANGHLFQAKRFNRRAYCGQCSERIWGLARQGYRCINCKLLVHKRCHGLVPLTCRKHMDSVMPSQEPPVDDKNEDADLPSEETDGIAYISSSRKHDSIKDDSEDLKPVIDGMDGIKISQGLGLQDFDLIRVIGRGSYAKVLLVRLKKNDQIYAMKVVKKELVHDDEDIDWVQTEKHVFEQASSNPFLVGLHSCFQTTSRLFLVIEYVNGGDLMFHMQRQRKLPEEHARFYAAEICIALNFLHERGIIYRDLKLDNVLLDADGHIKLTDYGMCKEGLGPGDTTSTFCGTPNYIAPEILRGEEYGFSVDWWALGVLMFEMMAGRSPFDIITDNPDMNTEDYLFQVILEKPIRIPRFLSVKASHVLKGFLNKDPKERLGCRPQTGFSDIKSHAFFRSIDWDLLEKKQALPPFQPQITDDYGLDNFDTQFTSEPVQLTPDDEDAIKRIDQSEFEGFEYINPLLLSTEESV
Chain of PIM1 (P11309 whole entry): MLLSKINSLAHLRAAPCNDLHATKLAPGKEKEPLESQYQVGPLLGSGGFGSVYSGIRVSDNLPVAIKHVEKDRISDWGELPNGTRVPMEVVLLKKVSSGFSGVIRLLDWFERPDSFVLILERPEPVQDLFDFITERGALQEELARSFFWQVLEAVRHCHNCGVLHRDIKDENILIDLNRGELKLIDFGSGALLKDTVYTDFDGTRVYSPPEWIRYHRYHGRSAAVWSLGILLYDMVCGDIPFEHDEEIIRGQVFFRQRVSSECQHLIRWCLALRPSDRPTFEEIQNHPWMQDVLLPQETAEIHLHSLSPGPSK

Q: `Cn1sc(=O)n(Cc2ccccc2)c1=O` [TDZD-8, 4-benzyl-2-methyl-1,2,4-thiadiazolidine-3,5-dione] was tested. Which inhibition at 20 µM (ABL1) did it give?
A: The inhibition at 20 µM was 70%.

Q: And the inhibition at 20 µM (AKT1 (PKB alpha))?
A: Its inhibition at 20 µM is 102%.

Q: What about the inhibition at 20 µM (BTK) of the same molecule?
A: Its inhibition at 20 µM is 72%.

Q: And the inhibition at 20 µM (CDK1/cyclin B)?
A: Its inhibition at 20 µM is 15%.

Q: What about the inhibition at 20 µM (CHEK1 (CHK1)) of the same molecule?
A: Its inhibition at 20 µM is 87%.

Q: And the inhibition at 20 µM (CSNK1G2 (CK1 gamma 2))?
A: The inhibition at 20 µM was 22%.

Q: And the inhibition at 20 µM (CSNK2A1 (CK2 alpha 1))?
A: Its inhibition at 20 µM is 27%.

Q: And the inhibition at 20 µM (DYRK3)?
A: Its inhibition at 20 µM is 85%.

Q: What about the inhibition at 20 µM (EGFR (ErbB1)) of the same molecule?
A: The inhibition at 20 µM was 1%.

Q: What about the inhibition at 20 µM (ERBB2 (HER2)) of the same molecule?
A: The inhibition at 20 µM was 12%.

Q: What about the inhibition at 20 µM (FGFR1) of the same molecule?
A: The inhibition at 20 µM was 1%.

Q: And the inhibition at 20 µM (IGF1R)?
A: The inhibition at 20 µM was -2%.

Q: And the inhibition at 20 µM (INSR)?
A: The inhibition at 20 µM was 9%.

Q: And the inhibition at 20 µM (IRAK4)?
A: Its inhibition at 20 µM is 8%.

Q: What about the inhibition at 20 µM (JAK3) of the same molecule?
A: Its inhibition at 20 µM is -1%.

Q: And the inhibition (Jak2)?
A: The inhibition was “little to no inhibition”.

Q: What about the inhibition at 20 µM (KIT) of the same molecule?
A: Its inhibition at 20 µM is -6%.

Q: And the “% Inhibition mean” value (KIT; TDZD-8 20 μM)?
A: Its value is “little to no inhibition”.

Q: And the inhibition at 20 µM (LCK)?
A: The inhibition at 20 µM was -9%.

Q: And the inhibition at 20 µM (MAP2K1 (MEK1))?
A: Its inhibition at 20 µM is 80%.

Q: And the inhibition at 20 µM (MAPK14 (p38 alpha))?
A: The inhibition at 20 µM was 97%.

Q: And the inhibition at 20 µM (MAPK3 (ERK1))?
A: Its inhibition at 20 µM is 61%.

Q: What about the inhibition at 20 µM (MAPKAPK2) of the same molecule?
A: The inhibition at 20 µM was 99%.

Q: And the inhibition at 20 µM (MET (cMet))?
A: Its inhibition at 20 µM is 90%.

Q: What about the inhibition at 20 µM (NTRK1 (TRKA)) of the same molecule?
A: The inhibition at 20 µM was -9%.

Q: And the inhibition at 20 µM (PIM1)?
A: The inhibition at 20 µM was 95%.

Q: And the inhibition at 20 µM (PRKACA (PKA))?
A: Its inhibition at 20 µM is 18%.

Q: What about the inhibition at 20 µM (PRKCA (PKC alpha)) of the same molecule?
A: Its inhibition at 20 µM is 102%.

Q: And the inhibition at 20 µM (PRKCE (PKC epsilon))?
A: The inhibition at 20 µM was 99%.

Q: What about the inhibition at 20 µM (PRKCG (PKC gamma)) of the same molecule?
A: Its inhibition at 20 µM is 103%.

Q: What about the inhibition at 20 µM (PRKCH (PKC eta)) of the same molecule?
A: Its inhibition at 20 µM is 104%.

Q: What about the inhibition at 20 µM (PRKCN (PKD3)) of the same molecule?
A: Its inhibition at 20 µM is 94%.

Q: And the inhibition at 20 µM (PRKCQ (PKC theta))?
A: Its inhibition at 20 µM is 101%.

Q: What about the inhibition at 20 µM (PRKCZ (PKC zeta)) of the same molecule?
A: Its inhibition at 20 µM is 100%.

Q: What about the inhibition at 20 µM (RET) of the same molecule?
A: Its inhibition at 20 µM is 34%.

Q: And the inhibition at 20 µM (ROCK1)?
A: Its inhibition at 20 µM is 113%.

Q: What about the inhibition at 20 µM (RPS6KA3 (RSK2)) of the same molecule?
A: The inhibition at 20 µM was 101%.

Q: What about the inhibition at 20 µM (SRC) of the same molecule?
A: Its inhibition at 20 µM is 27%.

Q: What about the “% Inhibition mean” value (SRC; TDZD-8 20 μM) of the same molecule?
A: Its value is “little to no inhibition”.

Q: What about the inhibition at 20 µM (STK6 (Aurora A)) of the same molecule?
A: The inhibition at 20 µM was 99%.

Q: And the inhibition at 20 µM (SYK)?
A: The inhibition at 20 µM was 99%.

Q: And the inhibition at 20 µM (TEK (Tie2))?
A: Its inhibition at 20 µM is 9%.

Q: What about the “% Inhibition mean” value (TEK (Tie2); TDZD-8 20 μM) of the same molecule?
A: The value was “little to no inhibition”.
